Laboratory results as given in US12421220B2, “Bicyclic-substituted glutarimide cereblon binders” (C4 THERAPEUTICS, INC., priority 2022, dated 2025).

target: CRBN-DDB1 (CRBN_DDB1.7) (Homo sapiens, UniProt Q96SW2); assay: Fluorescence polarization (FP) binding assay, CRBN_DDB1.7 construct; details: 0.05% PA, 0.1% BSA; benzomorpholine binders; read-out: FP CRBN_DDB1.7 0.05% PA, 0.1% BSA Ka nM
Description: (§1) Example 2: Fluorescence Polarization (FP) Assay for Screening Compound Ligand Binders of CRBN-DDB1
(§2) Measuring compound ligand binding to CRBN-DDB 1 was carried out using an established sensitive and quantitative in vitro fluorescence polarization (FP) based binding assay. (See, I. J. Enyedy et al, J. Med. Chem., 44: […] [2001]). Compounds were dispensed from serially diluted DMSO stock into black 384-well compatible fluorescence polarization plates using an Echo acoustic dispenser. Compound binding to CRBN-DDB 1 was measured by displacement of an established CRBN binding ligand conjugated to an Alexa Fluor® dye (probe). A […] mixture containing 10nM CRBN-DDB1 and 5 nM probe in 50 mM Hepes, pH 7.4, 200 mM NaCl, 1% DMSO, 0.1% BSA and 0.05% o pluronic acid-127 acid was added to wells containing compound and incubated at room temperature for 60 min. Matching control wells excluding CRBN-DDB 1 were used to correct for background fluorescence. Plates were read on an Envision plate reader with appropriate FP filter sets. The corrected S (perpendicular) and P (parallel) values were used to calculate fluorescence polarization (FP) with the following equation: FP=1000*(S−G*P)/(S+G*P).
(§3) The fractional amount of bound probe (FB) to CRBN-DDB 1 as a function of compound concentration was fitted according to Wang; FEBS Letters 360, (1995), 111-114 to obtain fits for parameter offsets and binding constant (KA) of competitor compound.

Chain of CRBN-DDB1 (CRBN_DDB1.7) (Q96SW2 81-442 limits assumed): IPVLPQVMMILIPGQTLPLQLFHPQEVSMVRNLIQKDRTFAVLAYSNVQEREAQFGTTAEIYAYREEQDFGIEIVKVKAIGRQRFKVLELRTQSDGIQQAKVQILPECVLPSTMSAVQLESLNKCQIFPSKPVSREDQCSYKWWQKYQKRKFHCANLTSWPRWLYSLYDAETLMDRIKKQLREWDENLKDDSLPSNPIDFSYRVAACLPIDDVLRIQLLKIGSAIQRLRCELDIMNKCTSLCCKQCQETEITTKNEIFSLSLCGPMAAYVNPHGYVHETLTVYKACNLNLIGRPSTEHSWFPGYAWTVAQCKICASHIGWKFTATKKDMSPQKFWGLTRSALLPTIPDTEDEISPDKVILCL

Row | Kd | SMILES
1 | ≤ 100000 nM | O=C1CCC(N2C(=O)COc3c(Br)cccc32)C(=O)N1 (stereo not shown) [Compound 33-5, 3-(8-bromo-3-oxo-1,4-benzoxazin-4-yl)piperidine-2,6-dione]

same assay, conditions: 0.05% PA, 0.1% BSA; indoline binders; read-out: FP CRBN_DDB1.7 0.05% PA, 0.1% BSA ka nM

Row | Kd | SMILES
2 | < 100000 nM | O=C1CCC(N2CCc3c(N4CCNCC4)cccc32)C(=O)N1 (stereo not shown) [Compound 37-4, 3-(4-piperazin-1-ylindolin-1-yl)piperidine-2,6-dione]
3 | < 100000 nM | CC(C)(C)OC(=O)N1CCC(c2cccc3c2CCN3[C@@H]2CCC(=O)NC2=O)CC1 (single isomer, unassigned) [Compound 41-4]
4 | < 100000 nM | O=C1CC[C@H](N2CCc3c(N4CCC(O)CC4)cccc32)C(=O)N1 (single isomer, unassigned) [Compound 43-5]
5 | < 1000 nM | O=C1CC[C@@H](N2CCc3c(N4CCC(O)CC4)cccc32)C(=O)N1 (single isomer, unassigned) [Compound 43-4]
6 | < 1000 nM | CC(C)(C)OC(=O)N1CCC(c2cccc3c2CCN3[C@H]2CCC(=O)NC2=O)CC1 (single isomer, unassigned) [Compound 41-5]

Second part, the compound before the results:

Row | SMILES | Kd
7 | CC(C)(C)OC(=O)N1CCC(c2ccc3c(c2F)CCN3[C@@H]2CCC(=O)NC2=O)CC1 (single isomer, unassigned) [Compound 47-7] | < 100000 nM
8 | CN(C(=O)OC(C)(C)C)C1CCN(c2c(F)ccc3c2CCN3[C@@H]2CCC(=O)NC2=O)CC1 (single isomer, unassigned) [Compound 44-9] | < 100000 nM
9 | CN(C(=O)OC(C)(C)C)C1CCN(c2c(F)ccc3c2CCN3[C@H]2CCC(=O)NC2=O)CC1 (single isomer, unassigned) [Compound 44-8] | < 100000 nM

same assay, conditions: 0.05% PA, 0.1% BSA; tetrahydroquinoline binders; read-out: FP CRBN_DDB1.7 0.05% PA, 0.1% BSA ka nM

Row | Kd | SMILES
10 | < 100000 nM | O=C1CCC(N2CCCc3c(N4CCC(O)CC4)cccc32)C(=O)N1 (stereo not shown) [Compound 65-7, 3-[5-(4-hydroxy-1-piperidyl)-3,4-dihydro-2H-quinolin-1-yl]piperidine-2,6-dione]
11 | < 100000 nM | CC(C)(C)OC(=O)N1CCC2(CC1)Cc1ccccc1N(C1CCC(=O)NC1=O)C2 (stereo not shown) [Compound 64-7, tert-butyl 1-(2,6-dioxo-3-piperidyl)spiro[2,4-dihydroquinoline-3,4′-piperidine]-1′-carboxylate]

target: CRBN-DDB1 (CRBN_DDB1.3) (Homo sapiens, UniProt Q96SW2); assay: Fluorescence polarization (FP) binding assay, CRBN_DDB1.3 construct; details: 0.05% PA, 0.1% BSA; benzomorpholine binders; read-out: FP CRBN_DDB1.3 0.05% PA, 0.1% BSA Ka nM
Description: as §1, §2, §3

Chain of CRBN-DDB1 (CRBN_DDB1.3) (Q96SW2 318-426 limits assumed): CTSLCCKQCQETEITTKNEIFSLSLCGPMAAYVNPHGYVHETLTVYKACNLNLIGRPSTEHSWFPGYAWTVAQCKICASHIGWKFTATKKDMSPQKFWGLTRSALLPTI

Row | Kd | SMILES
12 | ≤ 100000 nM | O=C1CCC(N2CCOc3c(N4CCC(O)(C(=O)O)CC4)cccc32)C(=O)N1 (stereo not shown) [Compound 27-8, 1-[4-(2,6-dioxo-3-piperidyl)-2,3-dihydro-1,4-benzoxazin-8-yl]-4-hydroxy-piperidine-4-carboxylic acid]
13 | ≤ 100000 nM | CNC1CCN(c2cccc3c2O[C@H](C)CN3C2CCC(=O)NC2=O)CC1 (stereo partly drawn) [Compound 18-10, 3-[(2R)-2-methyl-8-[4-(methylamino)-1-piperidyl]-2,3-dihydro-1,4-benzoxazin-4-yl]piperidine-2,6-dione]
14 | ≤ 100000 nM | CNC1CCN(c2cccc3c2O[C@@H](C)CN3C2CCC(=O)NC2=O)CC1 (stereo partly drawn) [Compound 18-13, 3-[(2S)-2-methyl-8-[4-(methylamino)-1-piperidyl]-2,3-dihydro-1,4-benzoxazin-4-yl]piperidine-2,6-dione]
15 | ≤ 100000 nM | O=C1CCC(N2CCOc3c(N4CCNCC4)cccc32)C(=O)N1 (stereo not shown) [Compound 10-10, 3-(8-(piperazin-1-yl)-2H-benzo[b][1,4]oxazin-4(3H)-yl)piperidine-2,6-dione]

Continued, compound first:

Row | SMILES | Kd
16 | CC(C)(C)OC(=O)CN1CCC(c2cccc3c2OCCN3[C@@H]2CCC(=O)NC2=O)CC1 (single isomer, unassigned) [Compound 24-4] | ≤ 100000 nM
17 | O=C1CCC(c2cccc3c2OCCN3C2CCC(=O)NC2=O)CC1 (stereo not shown) [Compound 5-14, 3-[8-(4-oxocyclohexyl)-2,3-dihydro-1,4-benzoxazin-4-yl]piperidine-2,6-dione] | ≤ 100000 nM
18 | O=C1CCC(c2ccnc3c2OCCN3C2CCC(=O)NC2=O)CC1 (stereo not shown) [Compound 8-10, 3-(8-(4-oxocyclohexyl)-2,3-dihydro-4H-pyrido[3,2-b][1,4]oxazin-4-yl)piperidine-2,6-dione] | ≤ 100000 nM
19 | CC(C)(C)OC(=O)CN1CCC(c2cccc3c2OCCN3[C@H]2CCC(=O)NC2=O)CC1 (single isomer, unassigned) [Compound 24-3] | ≤ 100000 nM
20 | O=C1CCC(N2CCOc3c([C@@H]4CCNC4)cccc32)C(=O)N1 (stereo partly drawn) [Compound 14-7, 3-(8-((S)-pyrrolidin-3-yl)-2H-benzo[b][1,4]oxazin-4(3H)-yl)piperidine-2,6-dione] | ≤ 100000 nM
21 | O=C1CCC(N2CCOc3c(C4CCC5(CCNCC5)CC4)cccc32)C(=O)N1 (stereo not shown) [Compound 20-7, 3-[8-(3-azaspiro[5.5]undecan-9-yl)-2,3-dihydro-1,4-benzoxazin-4-yl]piperidine-2,6-dione] | ≤ 100000 nM

same assay, conditions: 0.05% PA, 0.1% BSA; indoline binders; read-out: FP CRBN_DDB1.3 0.05% PA, 0.1% BSA ka nM

Row | Kd | SMILES
22 | < 1000 nM | O=C1CC[C@H](N2CCc3c(N4CCC(CO)CC4)cccc32)C(=O)N1 (single isomer, unassigned) [Compound 53-5]
23 | < 1000 nM | CC(C)(C)OC(=O)CC1CCN(c2cccc3c2CCN3[C@@H]2CCC(=O)NC2=O)CC1 (single isomer, unassigned) [Compound 39-6]
24 | < 100000 nM | CC(C)(C)OC(=O)C1CCN(c2cccc3c2CCN3[C@H]2CCC(=O)NC2=O)CC1 (single isomer, unassigned) [Compound 48-6]
25 | < 1000 nM | CC(C)(C)OC(=O)CC1(O)CCN(c2cccc3c2CCN3[C@@H]2CCC(=O)NC2=O)CC1 (single isomer, unassigned) [Compound 38-7]
26 | < 100000 nM | CC(C)(C)OC(=O)CC1CCN(c2cccc3c2CCN3[C@H]2CCC(=O)NC2=O)CC1 (single isomer, unassigned) [Compound 39-5]
27 | < 1000 nM | CC(C)(C)OC(=O)N1CC[C@@H]2CN(c3cccc4c3CCN4[C@@H]3CCC(=O)NC3=O)CC[C@@H]21 (single isomer, unassigned) [Compound 59-9b]
28 | < 100000 nM | CC(C)(C)OC(=O)C1CCN(c2cccc3c2CCN3[C@@H]2CCC(=O)NC2=O)CC1 (single isomer, unassigned) [Compound 48-7]
29 | < 100000 nM | CC(C)(C)OC(=O)N1CC[C@@H]2CN(c3cccc4c3CCN4[C@H]3CCC(=O)NC3=O)CC[C@@H]21 (single isomer, unassigned) [Compound 56-8b]
30 | < 100000 nM | CC(C)(C)OC(=O)C1CCN(Cc2cccc3c2CCN3[C@H]2CCC(=O)NC2=O)CC1 (single isomer, unassigned) [Compound 54-6]
31 | < 100000 nM | O=C1CCC(N2CCc3c(N4CCC(CCO)CC4)cccc32)C(=O)N1 (racemic) [Compound 42-4, 3-[4-[4-(2-hydroxyethyl)-1-piperidyl]indolin-1-yl]piperidine-2,6-dione]

Continued, compound first:

Row | SMILES | Kd
32 | CC(C)(C)OC(=O)N1CCC(c2ccc3c(c2F)CCN3[C@@H]2CCC(=O)NC2=O)CC1 (single isomer, unassigned) [Compound 47-7] | < 100000 nM
33 | CC(C)(C)OC(=O)N1CCC(c2cc3c(cc2F)N([C@@H]2CCC(=O)NC2=O)CC3)CC1 (single isomer, unassigned) [Compound 52-7] | < 100000 nM
34 | CN(C(=O)OC(C)(C)C)[C@H]1CC[C@@H](c2c(F)cc3c(c2F)CCN3[C@H]2CCC(=O)NC2=O)CC1 (single isomer, unassigned) [Compound 55-6] | < 100000 nM
35 | CN(C(=O)OC(C)(C)C)[C@H]1CC[C@@H](c2c(F)cc3c(c2F)CCN3[C@@H]2CCC(=O)NC2=O)CC1 (single isomer, unassigned) [Compound 55-7] | < 100000 nM
36 | CN(C(=O)OC(C)(C)C)[C@H]1CC[C@H](c2c(F)cc3c(c2F)CCN3[C@@H]2CCC(=O)NC2=O)CC1 (single isomer, unassigned) [Compound 55-5] | < 100000 nM
37 | CC(C)(C)OC(=O)N1CCC(c2ccc3c(c2)CCN3[C@H]2CCC(=O)NC2=O)CC1 (single isomer, unassigned) [Compound 40-6] | < 100000 nM

same assay, conditions: 0.05% PA, 0.1% BSA; tetrahydroquinoline binders; read-out: FP CRBN_DDB1.3 0.05% PA, 0.1% BSA ka nM

Row | Kd | SMILES
38 | < 1000 nM | CC(C)(C)OC(=O)N1CCC(OC2CCN(c3cccc4c3CCCN4[C@@H]3CCC(=O)NC3=O)CC2)CC1 (single isomer, unassigned) [Compound 67-7]
39 | < 1000 nM | CC(C)(C)OC(=O)N1CCN(c2cccc3c2CCCN3[C@@H]2CCC(=O)NC2=O)CC1 (single isomer, unassigned) [Compound 68-4]
40 | < 1000 nM | O=C1CC[C@H](N2CCCc3c(N4CCC(CCO)CC4)cccc32)C(=O)N1 (single isomer, unassigned) [Compound 66-4]
41 | < 100000 nM | CC(C)(C)OC(=O)N1CCN(c2cccc3c2CCCN3[C@H]2CCC(=O)NC2=O)CC1 (single isomer, unassigned) [Compound 68-3]

The remaining lines, values behind:

Row | SMILES | Kd
42 | CC(C)(C)OC(=O)CN1CCC(c2cccc3c2CCCN3[C@@H]2CCC(=O)NC2=O)CC1 (single isomer, unassigned) [Compound 60-4] | < 100000 nM
43 | CC(C)(C)OC(=O)N1CCC(OC2CCN(c3cccc4c3CCCN4[C@H]3CCC(=O)NC3=O)CC2)CC1 (single isomer, unassigned) [Compound 67-6] | < 100000 nM
